Test results as given in patent US20150366836A1, “METHOD AND PHARMACEUTICAL COMPOSITION FOR TREATING COLORECTAL CANCER” (National Dong Hua University, priority 2014, published 2015).

What was measured:
Caco2 cells [1] = experiment: Cell cycle analysis by flow cytometer (PI staining), Caco2 cells; assay type: cell-based
Description: (§1) The results of Example 2 in cell viability hinted the effects of HCD, PG, and 5-FU on arresting cell cycle. In this example, the phase of cell cycle of Caco2 and HT-29 cells after the treatment listed in Table 1 was determined by flow cytometer. Briefly, 7×10^4 cells per well were inoculated in 12-wells plate and incubated overnight at 37° C., 5% CO2. Then, cells were treated according to the treatment listed in Table 1 by indicated time period. After treatment, cells were harvested by trypsin and fixed with 70% ethanol at −20° C. for at least 3 hr. The cells were washed in cold PBS twice and then incubated with 1 mL (v/v) staining solution (20 μg/mL propidium iodide (PI), 0.1% Triton X-100, 0.2 mg/mL Rnase) at 37° C. for 30 minutes. Lastly, cells were analyzed by flow cytometer (Cytomics™ FC500, Backman, Fullerton, Calif., USA). Data from 10,000 cells were collected for each experimental group.

HT-29 cells [2] = experiment: Cell cycle analysis by flow cytometer (PI staining), HT-29 cells; assay type: cell-based
Description: as §1

HT-29 cells [3] = experiment: MTT assay cell viability, HT-29 cells; assay type: cell-based; details: Homo sapiens; HT-29 cells, 36 hr treatment
Description: (§2) Two cell lines were used in this study, Caco2 cells and HT-29 cells. Both of them are colorectal cancer cells. Caco2 cells and HT-29 cells were maintained in DMEM (or RPMI) supplemented with 20% or 10% fetal bovine serum (FBS; GIBCO), pH 7.4 at 37° C. with continuous circulation of 5% CO2 incubator. The medium was changed every 2 days and the cells were trypsinized using trypsin/EDTA when reaching 80%-90% confluence.
(§3) In this example, the effects of HCD, PG, and 5-FU on the viability of Caco2 cells and HT-29 cells were examined. The MTT assay was employed for this purpose. The MTT (3-(4-,5-dimethylthiazol-2-yl)-2,5-diphenyltetrazolium bromide) assay is a common colorimetric method in the field for cell viability analysis. MTT (yellow tetrazolium salt) is reduced to a purple formazan by living cells and detection to the purple formazan can be calculated as the cell viability.
(§4) Briefly, cells (Caco2 or HT-29) were seeded in 96-well plate (7×10^3 cell per well) and incubated overnight (37° C., 5% CO2).
(§5) On the other hand, in the pretreatment analysis, cells (Caco2 or HT-29) were seeded in 96-well plate (7×10^3 cell per well) and incubated overnight (37° C., 5% CO2). In according to the treatments listed in the Table 1, Cells were pre-treated by HCD or PG for 6, 12, 24, 36, or 48 hr and then were treated by 5-FU for additional 24 hr.

Caco2 cells [4] = experiment: MTT assay cell viability, Caco2 cells; assay type: cell-based; details: Homo sapiens, Caco-2; Caco2 cells, 48 hr treatment
Description: as §2, §3, §4, §5

[5] = system: mouse bearing inflammatory bowel disease (IBD), AOM/DSS induced; experiment: Mouse model bearing IBD (AOM/DSS induced), body weight and H&E staining of intestine; assay type: in vivo, C57/BL6 mice
Description: The animal experiments were approved by the National Dong-Hwa University Animal Ethics Committee and the experimental protocols were used according to the “Guide for the Care and Use of Laboratory Animals” of National Dong-Hwa University. On day 0, C57/BL6 mice (6-8 weeks old) were weighted and injected (intraperitoneal; i.p.) with 10 mg/kg body weight of azoxymethane (AOM) and then fed with 2% Dextran sodium sulfate solution (DSS solution) via water every day for 7 days. On day 8, the 2% DSS solution was changed to normal water for another 7 days. The cycle of DSS solution and water was repeated and the induction procedure was completed on day 35.
After the establishment of IBD in the experimental mice (on day 35), the mice were injected (i.p.) with 5-FU (15 mg/kg body weight) or HCD (0.64, 1.6, or 6.4 mg/kg body weight) once every three days for additional 30 days. Then, the mice were sacrificed. The colon, spleen, liver, and kidney thereof were immediately removed, observed, and further examined by H&E staining.

O=c1[nH]cc(F)c(=O)[nH]1 [5-FU, 5-Fluorouracil]
cell cycle arrest at sub-G1 phase vs control (in words) (Caco2 cells [1]; Caco2): increased cell cycle arrest at sub-G1 phase
G0/G1 (%) (Caco2 cells [1]; Caco2, 0.5 μM, 36 hr): 46.15 ± 1.34 %
G2/M (%) (Caco2 cells [1]; Caco2, 0.5 μM, 36 hr): 8.65 ± 1.48 %
S (%) (Caco2 cells [1]; Caco2, 0.5 μM, 36 hr): 20.05 ± 1.91%
Sub G1 (%) (Caco2 cells [1]; Caco2, 0.5 μM, 36 hr): 21.8 ± 5.09%
G0/G1 (%) (Caco2 cells [1]; Caco2, 0.5 μM, 48 hr): 46.15 ± 1.34%
G2/M (%) (Caco2 cells [1]; Caco2, 0.5 μM, 48 hr): 1.5 ± 0.14 %
S (%) (Caco2 cells [1]; Caco2, 0.5 μM, 48 hr): 13.65 ± 1.34%
Sub G1 (%) (Caco2 cells [1]; Caco2, 0.5 μM, 48 hr): 20.9 ± 3.25%
G0/G1 (%) (Caco2 cells [1]; Caco2, 2 μM, 36 hr): 36.65 ± 1.06 %
G2/M (%) (Caco2 cells [1]; Caco2, 2 μM, 36 hr): 1.85 ± 0.5 %
S (%) (Caco2 cells [1]; Caco2, 2 μM, 36 hr): 17.1 ± 2.12%
Sub G1 (%) (Caco2 cells [1]; Caco2, 2 μM, 36 hr): 40.1 ± 1.69 %
G0/G1 (%) (Caco2 cells [1]; Caco2, 2 μM, 48 hr): 35.35 ± 2.47 %
G2/M (%) (Caco2 cells [1]; Caco2, 2 μM, 48 hr): 3.55 ± 3.89 %
S (%) (Caco2 cells [1]; Caco2, 2 μM, 48 hr): 18.05 ± 10.11%
Sub G1 (%) (Caco2 cells [1]; Caco2, 2 μM, 48 hr): 37.55 ± 14.64 %
G0/G1 (%) (Caco2 cells [1]; Caco2, 5 μM, 36 hr): 39.1 ± 5.66 %
G2/M (%) (Caco2 cells [1]; Caco2, 5 μM, 36 hr): 1.05 ± 0.21%
S (%) (Caco2 cells [1]; Caco2, 5 μM, 36 hr): 12.5 ± 0.71%
Sub G1 (%) (Caco2 cells [1]; Caco2, 5 μM, 36 hr): 42.6 ± 5.37 %
G0/G1 (%) (Caco2 cells [1]; Caco2, 5 μM, 48 hr): 36.7 ± 8.06 %
G2/M (%) (Caco2 cells [1]; Caco2, 5 μM, 48 hr): 2.7 ± 2.95 %
S (%) (Caco2 cells [1]; Caco2, 5 μM, 48 hr): 17.5 ± 10.47%
Sub G1 (%) (Caco2 cells [1]; Caco2, 5 μM, 48 hr): 38.3 ± 24.47 %
cell cycle arrest at sub-G1 phase vs control (in words) (HT-29 cells [2]; HT-29): increased cell cycle arrest at sub-G1 phase
G0/G1 (%) (HT-29 cells [2]; HT-29, 0.5 μM, 24 hr): 40.05 ± 0.35 %
G2/M (%) (HT-29 cells [2]; HT-29, 0.5 μM, 24 hr): 17.45 ± 3.04%
S (%) (HT-29 cells [2]; HT-29, 0.5 μM, 24 hr): 28.65 ± 1.20 %
Sub G1 (%) (HT-29 cells [2]; HT-29, 0.5 μM, 24 hr): 6.75 ± 0.35%
G0/G1 (%) (HT-29 cells [2]; HT-29, 0.5 μM, 36 hr): 46.15 ± 1.34 %
G2/M (%) (HT-29 cells [2]; HT-29, 0.5 μM, 36 hr): 8.65 ± 1.48 %
S (%) (HT-29 cells [2]; HT-29, 0.5 μM, 36 hr): 20.05 ± 1.91%
Sub G1 (%) (HT-29 cells [2]; HT-29, 0.5 μM, 36 hr): 21.8 ± 5.09%
G0/G1 (%) (HT-29 cells [2]; HT-29, 2 μM, 24 hr): 50.3 ± 0.85%
G2/M (%) (HT-29 cells [2]; HT-29, 2 μM, 24 hr): 9.15 ± 0.78 %
S (%) (HT-29 cells [2]; HT-29, 2 μM, 24 hr): 26.15 ± 1.77 %
Sub G1 (%) (HT-29 cells [2]; HT-29, 2 μM, 24 hr): 7.75 ± 0.21%
G0/G1 (%) (HT-29 cells [2]; HT-29, 2 μM, 36 hr): 36.65 ± 1.06 %
G2/M (%) (HT-29 cells [2]; HT-29, 2 μM, 36 hr): 1.85 ± 0.5 %
S (%) (HT-29 cells [2]; HT-29, 2 μM, 36 hr): 17.1 ± 2.12%
Sub G1 (%) (HT-29 cells [2]; HT-29, 2 μM, 36 hr): 40.1 ± 1.69 %
G0/G1 (%) (HT-29 cells [2]; HT-29, 5 μM, 24 hr): 56.65 ± 6.01%
G2/M (%) (HT-29 cells [2]; HT-29, 5 μM, 24 hr): 9.4 ± 3.68 %
S (%) (HT-29 cells [2]; HT-29, 5 μM, 24 hr): 21.45 ± 2.33 %
Sub G1 (%) (HT-29 cells [2]; HT-29, 5 μM, 24 hr): 6.85 ± 0.64%
G0/G1 (%) (HT-29 cells [2]; HT-29, 5 μM, 36 hr): 39.1 ± 5.66 %
G2/M (%) (HT-29 cells [2]; HT-29, 5 μM, 36 hr): 1.05 ± 0.21%
S (%) (HT-29 cells [2]; HT-29, 5 μM, 36 hr): 12.5 ± 0.71%
Sub G1 (%) (HT-29 cells [2]; HT-29, 5 μM, 36 hr): 42.6 ± 5.37 %
IC50 (HT-29 cells [3]): 50 µM
IC50 (Caco2 cells [4]): 100 µM
intestine villus arrangement (H&E staining) ([5]; 15 mg/kg body weight i.p.): irregular arrangement of villus
lymph node (H&E staining) ([5]; 15 mg/kg body weight i.p.): enlarged
body weight ([5]; 15 mg/kg body weight i.p. once every three days, 30 days): initially reduced
